pKi: −log10 of the molar value. Counter-ions that a name gives are not always drawn. Like-named read-outs stand apart in the source and are kept apart here.
Columns and labels:
human μ-opiate receptor = human μ-opiate receptor (Homo sapiens, UniProt P35372); assay: Affinity for the human μ-opiate receptor ([3H]-naloxone displacement, SPA, CHO-K1 membrane preparation); format: binding; conditions: for inhibition at 1 µM: read-out: μ-Opioid receptor, % inhibition [1 μM]; for pKi: read-out: μ-Opioid receptor, Ki
[1] = target: T1, Noradrenaline (NA) reuptake (Rattus norvegicus, UniProt Q63380); assay: Noradrenaline (NA) reuptake inhibition in rat brain synaptosomes (hypothalamus, P2 fraction); format: biochemical
T1 construct: synaptosomes are freshly isolated from areas of rat brain; from tissue; host or cells: rat hypothalamus synaptosomes (P2 fraction)
Description: (§1) Noradrenaline (NA) and Serotonin (5HT) Reuptake Inhibition
(§2) In order to be able to carry out these studies in vitro, synaptosomes are freshly isolated from areas of rat brain. A so-called “P2” fraction prepared by the method of Gray and Whittaker (E. G. Gray and V. P. Whittaker (1962) J. Anat. 76, 79-88) is used in each case. For the NA uptake, these vesicular particles are isolated from the hypothalamus of male rat brains.
(§3) A detailed description of the method will be found in the literature (M. Ch. Frink, H. H. Hennies, W. Englberger, M. Haurand and B. Wilffert (1996) Arzneim.-Forsch./Drug Res. 46 (III), 11, 1029-1036).

Serotonin (5HT) reuptake = target: T2, Serotonin (5HT) reuptake (Rattus norvegicus, UniProt P31652); assay: Serotonin (5HT) reuptake inhibition in rat brain synaptosomes (P2 fraction); format: biochemical; conditions: for inhibition at 10 µM: read-out: Serotonin reuptake, % inhibition [10 μM]
T2 construct: synaptosomes are freshly isolated from areas of rat brain; from tissue; host or cells: rat brain synaptosomes (P2 fraction)
Description: as §1, §2, §3

[2] = 1 μM test substance, inhibition of specific [3H]-naloxone binding
[3] = [3H]-naloxone, human μ-opiate receptor membranes
[4] = read-out: NA reuptake, % inhibition [10 μM]
[5] = read-out: Na reuptake, % inhibition [10 μM]

human μ-opiate receptor, sequence (P35372 whole entry): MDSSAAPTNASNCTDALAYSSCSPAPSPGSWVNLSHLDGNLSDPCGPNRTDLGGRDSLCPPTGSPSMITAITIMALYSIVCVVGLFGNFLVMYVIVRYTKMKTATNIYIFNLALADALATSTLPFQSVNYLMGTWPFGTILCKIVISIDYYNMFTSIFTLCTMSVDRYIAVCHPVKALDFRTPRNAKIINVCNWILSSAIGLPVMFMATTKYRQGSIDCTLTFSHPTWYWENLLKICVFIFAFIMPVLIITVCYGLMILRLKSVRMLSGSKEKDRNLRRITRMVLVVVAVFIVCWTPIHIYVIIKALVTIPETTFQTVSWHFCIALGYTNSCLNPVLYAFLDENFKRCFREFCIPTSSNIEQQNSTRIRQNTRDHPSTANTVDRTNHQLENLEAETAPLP
T1 sequence (Q63380 1-617): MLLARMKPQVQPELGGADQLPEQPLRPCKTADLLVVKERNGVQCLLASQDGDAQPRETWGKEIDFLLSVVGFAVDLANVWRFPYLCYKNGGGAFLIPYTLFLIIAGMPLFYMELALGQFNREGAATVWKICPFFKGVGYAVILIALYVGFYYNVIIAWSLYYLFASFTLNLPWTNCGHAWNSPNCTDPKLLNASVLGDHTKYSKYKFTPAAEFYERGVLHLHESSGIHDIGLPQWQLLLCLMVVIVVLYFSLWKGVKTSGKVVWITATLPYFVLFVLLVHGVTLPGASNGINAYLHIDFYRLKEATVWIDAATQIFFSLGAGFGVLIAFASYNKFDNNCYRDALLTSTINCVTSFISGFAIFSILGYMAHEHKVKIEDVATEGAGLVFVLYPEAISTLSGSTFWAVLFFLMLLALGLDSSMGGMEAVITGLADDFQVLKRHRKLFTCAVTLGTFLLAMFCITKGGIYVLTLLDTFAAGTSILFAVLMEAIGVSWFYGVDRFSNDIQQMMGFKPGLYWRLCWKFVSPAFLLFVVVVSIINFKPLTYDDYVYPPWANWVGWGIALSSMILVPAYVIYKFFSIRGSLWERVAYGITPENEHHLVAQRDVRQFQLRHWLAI
T2 sequence (P31652 whole entry): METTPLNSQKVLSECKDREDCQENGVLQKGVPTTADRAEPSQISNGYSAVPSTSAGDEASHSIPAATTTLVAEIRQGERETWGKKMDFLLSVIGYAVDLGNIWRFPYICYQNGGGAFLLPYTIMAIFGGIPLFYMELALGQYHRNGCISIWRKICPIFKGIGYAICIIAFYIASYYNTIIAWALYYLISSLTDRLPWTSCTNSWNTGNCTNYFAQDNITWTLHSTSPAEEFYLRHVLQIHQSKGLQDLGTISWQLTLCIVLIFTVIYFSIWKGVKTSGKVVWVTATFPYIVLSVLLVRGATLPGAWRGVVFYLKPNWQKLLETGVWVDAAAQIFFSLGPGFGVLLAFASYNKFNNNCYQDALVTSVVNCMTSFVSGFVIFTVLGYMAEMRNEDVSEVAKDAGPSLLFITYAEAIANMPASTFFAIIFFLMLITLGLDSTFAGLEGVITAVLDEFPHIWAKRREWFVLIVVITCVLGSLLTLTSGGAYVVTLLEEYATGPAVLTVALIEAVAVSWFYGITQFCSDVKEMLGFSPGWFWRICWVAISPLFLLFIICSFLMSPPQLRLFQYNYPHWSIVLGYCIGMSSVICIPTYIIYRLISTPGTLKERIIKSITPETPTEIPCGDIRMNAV

Structure (SMILES)	inhibition at 1 µM (human μ-opiate receptor; [2])	pKi (human μ-opiate receptor; [3])	inhibition at 10 µM [1, 4]	inhibition at 10 µM (Serotonin (5HT) reuptake)	pKi (human μ-opiate receptor)	pKi [1]	pKi (Serotonin (5HT) reuptake)	inhibition at 1 µM (human μ-opiate receptor)	inhibition at 10 µM [1, 5]	inhibition at 1 µM (human μ-opiate receptor; 1 μM, sulfonamides (Table 17))	pKi (human μ-opiate receptor; sulfonamides (Table 17))
CN(C)C(c1cccs1)C1CCC(CN)CC1 (centres unmarked) [compound 42, [(4-aminomethyl-cyclohexyl)-thiophen-2-yl-methyl]-dimethylamine]	80%	6.62	83%	86%	–	–	–	–	–	–	–
CN(C)C(c1cccs1)C1CCC(CC=O)CC1 (centres unmarked) [compound 67, {4-[Dimethylamino-thiophen-2-yl-methyl]-cyclohexyl}-acetaldehyde]	–	–	86%	95%	6.70	–	–	–	–	–	–
CN(C)C(c1ccccc1)C1CCC(CO)CC1 (centres unmarked) [compound 117, [4-(dimethylamino-phenyl-methyl)-cyclohexyl]-methanol]	57%	–	82%	85%	–	–	–	–	–	–	–
CN(C)C(c1ccccc1)C1CCC(NC(=O)Nc2cccc3ccccc23)CC1 (centres unmarked) [compound 73, 1-(4-((dimethylamino)(phenyl)methyl)cyclohexyl)-3-(naphthalen-1-yl)urea]	96%	–	94%	90%	7.34	6.74	7.21	–	–	–	–
CN(C)C(c1cccs1)C1CCC(N)CC1 (centres unmarked) [compound 25, 4-(dimethylamino-thiophen-2-yl-methyl)-cyclohexylamine]	74%	6.59	84%	71%	–	–	–	–	–	–	–
CN(C)C(c1ccccc1)C1CCC(CCCO)CC1 (centres unmarked) [compound 134, 3-[4-(dimethylamino-phenyl-methyl)-cyclohexyl]-propan-1-ol]	45%	–	90%	86%	–	–	–	–	–	–	–
CN(C)C(c1ccccc1)C1CCC(N(Cc2ccccc2)C(=O)c2ccc(F)cc2)CC1 (centres unmarked) [compound 103, N-benzyl-N-(4-((dimethylamino)(phenyl)methyl)cyclohexyl)-4-fluoro-benzamide hydrochloride]	–	–	–	93%	8.06	6.40	6.25	99%	87%	–	–
CN(C)C(c1ccccc1)C1CCC(OCc2ccccc2)CC1 (centres unmarked) [compound 144, 4-(benzyloxy)cyclohexyl)-N,N-dimethyl(phenyl)methanamine hydrochloride]	81%	–	75%	80%	6.92	–	–	–	–	–	–
CN(C)C(c1ccc(F)cc1)C1CCC(CC=O)CC1 (centres unmarked) [compound 49, {4-[Dimethylamino-(4-fluorophenyl)-methyl]-cyclohexyl}-acetaldehyde]	34%	–	97%	93%	–	–	–	–	–	–	–
CCC(CC)C(=O)N(c1ccccc1)C1CCC(C(c2ccccc2)N(C)C)CC1 (centres unmarked) [compound 105, N-(4-((dimethylamino)(phenyl)methyl)cyclohexyl)-2-ethyl-N-phenylbutanamide hydrochloride]	–	–	–	85%	7.70	–	–	100%	88%	–	–
CC(=O)N(c1ccccc1)C1CCC(C(c2ccccc2)N(C)C)CC1 (centres unmarked) [compound 96, N-(4-((dimethylamino)(phenyl)methyl)cyclohexyl)-N-phenylacetamide hydrochloride]	–	–	–	83%	7.07	6.10	6.18	99%	88%	–	–
COc1ccc(S(=O)(=O)NC2CCC(C(c3ccccc3)N(C)C)CC2)cc1 (centres unmarked) [compound 107, N-(4-((dimethylamino)(phenyl)methyl)cyclohexyl)-4-methoxybenzene-sulfonamide hydrochloride]	–	–	78%	90%	–	–	–	–	–	99%	7.82
CN(C)C(c1cccc(F)c1)C1CCC(CO)CC1 (centres unmarked) [compound 119, {4-[dimethylamino-(3-fluorophenyl)-methyl]-cyclohexyl}-methanol]	43%	–	91%	88%	–	–	–	–	–	–	–
CN(C)C(c1ccc(F)cc1)C1CCC(O)CC1 (centres unmarked) [compound 112, 4-[dimethylamino-(4-fluorophenyl)-methyl]-cyclohexanol]	66%	–	74%	82%	–	–	–	–	–	–	–
CCOC(=O)CCC1CCC(C(c2ccc(F)cc2)N(C)C)CC1 (centres unmarked) [compound 136, 3-{4-[dimethylamino-(4-fluorophenyl)-methyl]-cyclohexyl}-propionic acid ethyl ester]	73%	–	89%	86%	6.64	6.24	7.08	–	–	–	–
CCOC(=O)CC1CCC(C(c2cccc(F)c2)N(C)C)CC1 (centres unmarked) [compound 130, {4-[dimethylamino-(3-fluorophenyl)-methyl]-cyclohexyl}-acetic acid ethyl ester]	82%	–	82%	93%	6.64	–	7.80	–	–	–	–
CN(C)C(c1ccccc1)C1CCC(NC(=O)Nc2ccc(F)cc2F)CC1 (centres unmarked) [compound 74, 1-(2,4-difluorophenyl)-3-(4-((dimethylamino)(phenyl)methyl)cyclohexyl)urea hydrochloride]	88%	–	93%	86%	6.80	6.66	6.92	–	–	–	–
CCC(CC)C(=O)NC1CCC(C(c2ccccc2)N(C)C)CC1 (centres unmarked) [compound 93, N-(4-((dimethylamino)(phenyl)methyl)cyclohexyl)-2-ethylbutanamide hydrochloride]	–	–	–	75%	7.03	–	6.18	94%	48%	–	–
COc1ccc(NC2CCC(C(c3ccccc3)N(C)C)CC2)cc1 (centres unmarked) [compound 89, N-(4-((dimethylamino)(phenyl)methyl)cyclohexyl)-4-methoxybenzenamine hydrochloride]	95%	–	85%	73%	7.23	–	–	–	–	–	–
CN(C)C(c1ccccc1)C1CCC(CN)CC1 (centres unmarked) [compound 30, [(4-aminomethyl-cyclohexyl)-phenyl-methyl]-dimethylamine]	94%	–	89%	89%	6.68	–	–	–	–	–	–
CN(C)C(c1cccs1)C1CCC(CCN)CC1 (centres unmarked) [compound 69, 2-[4-(dimethylamino-thiophen-2-yl-methyl)-cyclohexyl]-ethylamine]	61%	–	98%	83%	–	–	–	–	–	–	–
CCOC(=O)C=CC1CCC(C(c2cccc(F)c2)N(C)C)CC1 (centres unmarked) [compound 138, 3-{4-[dimethylamino-(3-fluorophenyl)-methyl]-cyclohexyl}-acrylic acid ethyl ester]	73%	–	96%	84%	7.04	6.21	6.51	–	–	–	–
CN(C)C(c1ccccc1)C1CCC(NC(=O)Nc2cccc(Br)c2)CC1 (centres unmarked) [compound 77, 1-(3-bromophenyl)-3-(4-((dimethylamino)(phenyl)methyl)cyclohexyl)urea hydrochloride]	88%	–	93%	84%	7.11	–	–	–	–	–	–
CN(C)C(c1ccccc1)C1CCC(OCc2ccc(F)cc2)CC1 (centres unmarked) [compound 145, 4-(4-fluorobenzyloxy)cyclohexyl)-N,N-dimethyl(phenyl)methanamine hydrochloride]	73%	–	84%	83%	6.51	–	6.54	–	–	–	–
CN(C)C(c1cccs1)C1CCC(O)CC1 (centres unmarked) [compound 115, 4-(dimethylamino-thiophen-2-yl-methyl)-cyclohexanol]	61%	–	47%	63%	–	–	–	–	–	–	–
CN(C)C(c1ccccc1)C1CCC(N(Cc2ccccc2)C(=O)c2ccccc2)CC1 (centres unmarked) [compound 104, N-benzyl-N-(4-((dimethylamino)(phenyl)methyl)cyclohexyl)benzamide hydrochloride]	–	–	–	90%	7.85	6.49	6.36	92%	92%	–	–
CN(C)C(c1cccc(F)c1)C1CCC(CCCO)CC1 (centres unmarked) [compound 140, 3-{4-[dimethylamino-(3-fluorophenyl)-methyl]-cyclohexyl}-propan-1-ol]	31%	–	94%	85%	–	–	–	–	–	–	–
CN(C)C(c1ccccc1)C1CCC(NC(=O)Nc2cccc(C(F)(F)F)c2)CC1 (centres unmarked) [compound 75, 1-(4-((dimethylamino)(phenyl)methyl)cyclohexyl)-3-(3-(trifluoromethyl)-phenyl)urea hydrochloride]	88%	–	88%	80%	7.01	6.26	7.89	–	–	–	–
